The target in test [1] is T1, Top1 (Homo sapiens, UniProt P11387).
T1 sequence (P11387 1-765): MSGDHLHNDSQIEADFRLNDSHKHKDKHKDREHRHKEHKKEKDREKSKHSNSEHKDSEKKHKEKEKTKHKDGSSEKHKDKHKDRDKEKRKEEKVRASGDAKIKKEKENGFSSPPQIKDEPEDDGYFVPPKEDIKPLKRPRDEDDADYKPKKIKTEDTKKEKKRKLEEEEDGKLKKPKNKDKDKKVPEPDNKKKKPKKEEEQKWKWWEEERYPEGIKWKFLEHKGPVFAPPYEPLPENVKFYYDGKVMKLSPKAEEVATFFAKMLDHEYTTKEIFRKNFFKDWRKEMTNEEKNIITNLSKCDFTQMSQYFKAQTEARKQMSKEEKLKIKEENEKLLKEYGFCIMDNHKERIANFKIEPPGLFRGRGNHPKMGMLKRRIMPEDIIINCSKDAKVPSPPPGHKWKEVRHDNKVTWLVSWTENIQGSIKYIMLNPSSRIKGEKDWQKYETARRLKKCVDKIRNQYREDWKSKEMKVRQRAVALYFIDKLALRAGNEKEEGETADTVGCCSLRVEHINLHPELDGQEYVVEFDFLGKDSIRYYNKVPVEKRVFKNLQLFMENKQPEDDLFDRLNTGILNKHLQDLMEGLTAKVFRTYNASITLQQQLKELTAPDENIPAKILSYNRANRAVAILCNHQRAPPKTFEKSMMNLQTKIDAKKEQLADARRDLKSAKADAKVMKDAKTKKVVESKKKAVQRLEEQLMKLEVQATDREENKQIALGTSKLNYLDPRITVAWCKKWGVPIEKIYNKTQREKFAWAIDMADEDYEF
Kind of test: Top1-mediated DNA cleavage assay. The test is classed as biochemical.

Test [2] concerns HCT116. Kind of test: MTT cytotoxicity assay, HCT116. The test is classed as cell-based, human. The settings on record: 72 h. On the procedure:
(§1) Cytotoxicity Assays. […] The cells were incubated with the tested compounds for 72 hours in a five-dose assay ranging from 0.01 to 100 μM concentration. After drug treatments, MTT solution was added to test the percentage growth of tumor cells.
(§2) The compounds were incubated with the cells for 72 hours in a five-dose assay ranging from 0.01 to 100 μM concentration. At the end of the incubation, the MTT solution was added to test the percentage growth of tumor cells.
(§3) For the drug treatment experiments, the cancer cells were treated with the compounds (predissolved in DMSO) at a five-dose assay ranging from 0.01 to 100 μM concentration. […] After 4 h incubation, the formazan crystal formed in the well was dissolved with […] of DMSO for optical density reading at 570 nm. The GI50 value was calculated by nonlinear regression analysis (GraphPad Prism).
In general terms: Formazan colour is commonly taken as a measure of viable cells.

Test [3] relates to DU145. Nature of the test: MTT cytotoxicity assay, DU145. The format is cell-based, human. The note with it: 72 h. On the procedure:
as §1, §2, §3

Test [4] relates to A549. Nature of the test: MTT cytotoxicity assay, A549. The format is cell-based, human. On the procedure:
as §1, §2, §3

Test [5] deals with MCF-7. Nature of the test: MTT cytotoxicity assay, MCF-7. The test is classed as cell-based, human. The note with it: Table 7, read-out: GI50 ± SC (μM) MCF-7. On the procedure:
as §2, §3

Test [6] has as its system CCRF-CEM. Nature of the test: MTT cytotoxicity assay, CCRF-CEM. The format is cell-based, human. The note with it: 72 h, Table 1b. On the procedure: as §1, §3
In test [7] the test system is Huh7. Nature of the test: MTT cytotoxicity assay, Huh7. The test is classed as cell-based, human. The note with it: Table 1b. On the procedure: as §1, §3
Test [8] has as its target T2, Top1-DNA covalent cleavage complexes in HCT116 cells (Homo sapiens, UniProt P11387).
T2 construct: endogenous in cells; host or cells: HCT116 (human colon cancer)
Nature of the test: Immunocomplex of enzyme to DNA (ICE) assay. The test is classed as cell-based. The settings on record: HCT116, 25, 50 and 100 μM.

Setting [9] is: graded relative to CPT at 1 μM, Table 7.
[10] abbreviates: Table 7, read-out: GI50 ± SC (μM) HCT116.
The mark [11] stands for this setting: Table 7, read-out: GI50 ± SC (μM) DU145.
Where [12] appears, read: 72 h, Table 7, read-out: GI50 ± SC (μM) A-49.

Read-outs that look alike come from different tables or passages of the source.

Here are results for 14 compounds from patent US12655107B2 (The United States of America, as represented by the …, priority 2018, dated 2026).

Broadly, the GI50 is the concentration giving 50% growth inhibition.

Take `COc1cc2c(=O)n(CCNS(=O)(=O)N3CCOCC3)c3c4cc5c(cc4ccc3c2cc1OC)OCO5` [Compound 61, N-(2-(2,3-dimethoxy-13-oxo-[1,3]dioxolo[4′,5′:4,5]benzo[1,2-c]phenanthridin-12(13H)-yl)ethyl)morpholine-4-sulfonamide]: the TOP1 inhibition result in test [1] (setting [9]) is “++ (++, between 50% and 75% activity)”. Further, the concentration for 50% growth inhibition (GI50) worked out at 1.1 ± 0.047 µM in test [2] (setting [10]), 1.6 ± 0.021 µM in test [3] (setting [11]), 2.9 ± 0.027 µM in test [4] (setting [12]) and 0.89 ± 0.12 µM in test [5] (72 h).
On to `COc1cc2c(=O)n(CCNS(=O)(=O)N3CCCC3)c3c4cc5c(cc4ccc3c2cc1OC)OCO5` [Compound 60, N-(2-(2,3-dimethoxy-13-oxo-[1,3]dioxolo[4′,5′:4,5]benzo[1,2-c]phenanthridin-12(13H)-yl)ethyl)pyrrolidine-1-sulfonamide], for which the concentration for 50% growth inhibition (GI50) is 34 ± 1.1 µM in test [2] (setting [10]), 79 ± 1 µM in test [3] (setting [11]), 61 ± 0.15 µM in test [4] (setting [12]) and 38 ± 0.78 µM in test [5] (72 h).
For `COc1cc2c(=O)n(CCNS(=O)(=O)N(C)C)c3c4cc5c(cc4ccc3c2cc1OC)OCO5` [Compound 59, N-(2-(2,3-dimethoxy-13-oxo-[1,3]dioxolo[4′,5′:4,5]benzo[1,2-c]phenanthridin-12(13H)-yl)ethyl)dimethylamine-1-sulfonamide], in test [1] (setting [9]), the TOP1 inhibition entry is “+ (+, between 20% and 50% activity)”. Moreover, the concentration for 50% growth inhibition (GI50) stood at 30 ± 2.1 µM in test [2] (setting [10]), 45 ± 1.2 µM in test [3] (setting [11]), 35 ± 0.14 µM in test [4] (setting [12]) and 21 ± 1 µM in test [5] (72 h).
In the case of `CC[C@@]1(O)C(=O)OCc2c1cc1n(c2=O)Cc2cc3ccccc3nc2-1` [Compound 1, camptothecin, reference compound], the TOP1 inhibition result is “++++” in test [1] (setting [9]) and “++++ (++++, equal activity)” in test [1] (semi-quantitative score relative to CPT (1) at 1 μM, tested at 0.1-100 μM). Further, the GI50 in test [6] (Homo sapiens, CCRF-CEM) came to 0.007 ± 0.003 µM; in test [4] (Homo sapiens, A549, 72 h, Table 7, read-out: GI50 ± SC (μM) A-49), 0.099 ± 0.017 µM; in test [7] (Homo sapiens, Huh-7, 72 h), 0.099 ± 0.017 µM; in test [5] (Homo sapiens, MCF7, 72 h), 0.012 ± 0.002 µM. In test [8], the “induction of cellular Top1cc” value is recorded as “induced the formation of cellular TOP1 cc in a dose-dependent manner”.
As to “N-(2-(2,3-dimethoxy-13-oxo-[1,3]dioxolo[4′,5′:4,5]benzo[1,2-c]phenanthridin-12(13H)-yl)ethyl)-N-methyldiethylamine-1-sulfonamide [Compound 53]”, in test [1] (setting [9]), the TOP1 inhibition entry is “+ (+, between 20% and 50% activity)”. Moreover, the 50% growth inhibitory concentration (GI50) in test [2] (setting [10]) stood at 0.96 ± 0.04 µM; in test [3] (setting [11]), 15 ± 0.59 µM; in test [4] (setting [12]), 7.9 ± 0.23 µM; in test [5] (72 h), 1.5 ± 0.15 µM.
Take `COc1cc2c(=O)n(C)c3c4cc5c(cc4ccc3c2cc1OC)OCO5` [Compound 6, oxynitidine, reference compound]: the 50% growth inhibitory concentration (GI50) in test [2] (Table 1b, read-out: GI50 (μM) HCT116) is 74.8 ± 4.36 µM; in test [6], 26.5 ± 5.41 µM; in test [3] (Table 1b, read-out: GI50 (μM) DU145), 64.2 ± 10.9 µM; in test [4] (72 h, Table 1b, read-out: GI50 (μM) A549), 39.4 ± 26.2 µM; in test [7] (72 h), > 100 µM.
Turning to “Dimethyl(2-(2,3-dimethoxy-13-oxo-[1,3]dioxolo[4′,5′:4,5]benzo[1,2-c]phe-nanthridin-12(13H)-yl)ethyl)(methyl)phosphoramidate [Compound 56]”, the TOP1 inhibition result in test [1] (setting [9]) was “++ (++, between 50% and 75% activity)”. For the same compound, the GI50 in test [2] (setting [10]) turned out to be 9.2 ± 0.14 µM; in test [3] (setting [11]) it was 5.3 ± 0.21 µM; in test [4] (setting [12]), 14 ± 1.4 µM; in test [5] (72 h), 10 ± 0.54 µM.
For `COc1cc2c(=O)n(CCNC(=O)C3CC3)c3c4cc5c(cc4ccc3c2cc1OC)OCO5` [Compound 63, N-(2-(2,3-dimethoxy-13-oxo-[1,3]dioxolo[4,5′:4,5]benzo[1,2-c]phenanthridin-12(13H)-yl)ethyl)cyclopropanecarboxamide], the TOP1 inhibition result in test [1] (setting [9]) is “+ (+, between 20% and 50% activity)”. The GI50 in test [2] (setting [10]) was 5.3 ± 0.11 µM; in test [3] (setting [11]) it was 7.8 ± 0.52 µM; in test [4] (setting [12]), 1.3 ± 0.006 µM; in test [5] (72 h), 2.2 ± 0.27 µM.
As for `COc1cc2c(=O)n(CCN(C)S(=O)(=O)C3CC3)c3c4cc5c(cc4ccc3c2cc1OC)OCO5` [Compound 52, N-(2-(2,3-dimethoxy-13-oxo-[1,3]dioxolo[4′,5′:4,5]benzo[1,2-c]phenanthridin-12(13H)-yl)ethyl)-N-methylcyclopropanesulfonanide], in test [1] (setting [9]), the TOP1 inhibition entry was “+ (+, between 20% and 50% activity)”. Besides, the 50% growth inhibitory concentration (GI50) in test [2] (setting [10]) turned out to be 7.9 ± 0.15 µM; in test [3] (setting [11]) it was 10 ± 1.2 µM; in test [4] (setting [12]), 15 ± 1.5 µM; in test [5] (72 h), 5.8 ± 0.89 µM.
Take `COc1cc2c(=O)n(CCN(C)S(=O)(=O)C(F)(F)F)c3c4cc5c(cc4ccc3c2cc1OC)OCO5` [Compound 51, N-(2-(2,3-dimethoxy-13-oxo-[1,3]dioxolo[4′5′:4,5]benzo[1,2-c]phenanthridin-12(13H)-yl)ethyl)-1,1,1-trifluoro-N-methylmethanesulfonamide]: the 50% growth inhibitory concentration (GI50) in test [2] (setting [10]) worked out at 86 ± 2.5 µM; in test [3] (setting [11]) it was 65 ± 1.2 µM; in test [4] (setting [12]) it was 42 ± 0.98 µM; in test [5] (72 h), 35 ± 1.7 µM.
Turning to `COc1cc2c(=O)n(CCNS(=O)(=O)C3CC3)c3c4cc5c(cc4ccc3c2cc1OC)OCO5` [Compound 58, N-(2-(2,3-dimethoxy-13-oxo-[1,3]dioxolo[4′,5′:4,5]benzo[1,2-c]phenanthridin-12(13H)-yl)ethyl)cyclopropanesulfonamide], the TOP1 inhibition result in test [1] (setting [9]) was “++ (++, between 50% and 75% activity)”. Moreover, the GI50 in test [2] (setting [10]) came out at 5.2 ± 0.13 µM; in test [3] (setting [11]), 1.3 ± 0.32 µM; in test [4] (setting [12]), 4.3 ± 0.21 µM; in test [5] (72 h) it was 3 ± 0.63 µM.
`COc1cc2c(=O)n(CCNP(=O)(OC)OC)c3c4cc5c(cc4ccc3c2cc1OC)OCO5` [Compound 62, Dimethyl(2-(2,3-dimethoxy-13-oxo-[1,3]dioxolo[4′,5′:4,5]benzo[1,2-c]phenanthridin-12(13H)-yl)ethyl)phosphoramidate]: the GI50 was 51 ± 1.5 µM in test [2] (setting [10]), 39 ± 2.2 µM in test [3] (setting [11]), 41 ± 2 µM in test [4] (setting [12]) and 48 ± 1.9 µM in test [5] (72 h).
Consider `COc1cc2c(=O)n(CCN(C)S(=O)(=O)N3CCOCC3)c3c4cc5c(cc4ccc3c2cc1OC)OCO5` [Compound 55, N-(2-(2,3-dimethoxy-13-oxo-[1,3]dioxolo[4′,5′:4,5]benzo[1,2-c]phenanthridin-12(13H)-yl)ethyl)-N-methylmorpholine-4-sulfonamide], for which the TOP1 inhibition result in test [1] (setting [9]) was “+ (+, between 20% and 50% activity)”. For the same compound, the GI50 is 40 ± 1.2 µM in test [2] (setting [10]), 48 ± 1.2 µM in test [3] (setting [11]), 35 ± 2.5 µM in test [4] (setting [12]) and 64 ± 0.57 µM in test [5] (72 h).
On to `COc1cc2c(=O)n(CCN(C)S(=O)(=O)N3CCCC3)c3c4cc5c(cc4ccc3c2cc1OC)OCO5` [Compound 54, N-(2-(2,3-dimethoxy-13-oxo-[1,3]dioxolo[4,5′:4,5]benzo[1,2-c]phenanthridin-12(13H)-yl)ethyl)-N-methylpyrrolidine-1-sulfonamide], for which, in test [1] (setting [9]), the TOP1 inhibition entry was “+ (+, between 20% and 50% activity)”. For the same compound, the GI50 in test [2] (setting [10]) turned out to be 2.5 ± 0.18 µM; in test [3] (setting [11]), 3.1 ± 0.3 µM; in test [4] (setting [12]) it was 5.3 ± 0.41 µM; in test [5] (72 h) it was 3.8 ± 0.25 µM.
